Source: ChEMBL document CHEMBL4418271, “Novel Ethanediamone Hepcidine Antagonists” (2012)

Tests used:
Ferroportin = Ferroportin (Homo sapiens, UniProt Q9NP59); experiment: Inhibition of human hepcidin-stimulated recombinant C-terminal Halo-tagged human FPN internalization in MDCK cells incubated for 15 to 20 mins by Halo-tagged TMR based fluorescence assay; type: cell-based
Hepcidin (Homo sapiens) = biological target: T1, Hepcidin (Homo sapiens) (UniProt P81172); experiment: Inhibition of human hepcidin-stimulated recombinant C-terminal Halo-tagged human FPN internalization in MDCK cells at 10 uM incubated for 15 to 20 mins by Halo-tagged TMR based fluorescence assay relative to control; type: cell-based
T1 sequence (whole entry): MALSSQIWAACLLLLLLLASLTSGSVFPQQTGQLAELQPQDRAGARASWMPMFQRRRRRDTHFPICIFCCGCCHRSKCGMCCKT

Sequence of Ferroportin (Q9NP59 whole entry, looked up): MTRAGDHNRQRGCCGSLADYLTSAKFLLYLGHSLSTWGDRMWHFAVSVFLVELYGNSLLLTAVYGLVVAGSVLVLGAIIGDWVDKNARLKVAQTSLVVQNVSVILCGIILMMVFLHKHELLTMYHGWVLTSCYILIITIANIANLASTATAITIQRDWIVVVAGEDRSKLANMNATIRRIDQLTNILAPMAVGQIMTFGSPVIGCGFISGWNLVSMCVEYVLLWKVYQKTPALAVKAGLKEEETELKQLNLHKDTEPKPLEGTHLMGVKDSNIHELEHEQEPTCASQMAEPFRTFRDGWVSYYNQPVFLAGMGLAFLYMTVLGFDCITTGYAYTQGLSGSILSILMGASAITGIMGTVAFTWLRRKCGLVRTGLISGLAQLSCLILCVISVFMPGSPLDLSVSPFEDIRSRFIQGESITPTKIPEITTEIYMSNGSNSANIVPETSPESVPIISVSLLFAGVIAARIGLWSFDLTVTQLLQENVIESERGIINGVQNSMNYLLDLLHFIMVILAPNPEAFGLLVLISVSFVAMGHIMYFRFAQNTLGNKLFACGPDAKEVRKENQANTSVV

SMILES | IC50 (Ferroportin) [µM] | inhibition (Hepcidin (Homo sapiens)) [%]
COCCN1CCN(C(CN2CCC(N3CCCCC3)CC2)c2ccc(OC(C)C)cc2)CC1 (configuration not stated) | > 100 | 
COCCN1CCN(C(CN2CCCCC2)c2ccccc2)CC1 (configuration not stated) | < 100 | 
COCCC1CCN(C(CN2CCC(N3CCCCC3)CC2)c2ccccc2)CC1 (configuration not stated) | > 100 | 
COCCN1CCN(C(CN2CCC(N3CCCCC3)CC2)c2cccc(OC)c2)CC1 (configuration not stated) | < 100 | 
O=C(C1CCCO1)N1CCN(C(CN2CCC(N3CCCCC3)CC2)c2ccccc2)CC1 (configuration not stated) | > 100 | 
CCN(CC)CCN1CCN(C(CN2CCC(N3CCCCC3)CC2)c2ccccc2)CC1 (configuration not stated) | > 100 | 
CCCCN1CCN(C(CN2CCC(N3CCCCC3)CC2)c2ccccc2)CC1 (configuration not stated) | > 100 | 
COCCN1CCN(C(CN2CCC(Nc3ccccc3)CC2)c2ccccc2)CC1 (configuration not stated) | > 100 | 
COCCN1CCN(C(CN2CCC(N3CCCCC3)CC2)c2ccc(OC)cc2)CC1 (configuration not stated) | < 50 | 
COCCCN1CCN(C(CN2CCC(N3CCCCC3)CC2)c2ccccc2)CC1 (configuration not stated) | < 50 | 
c1ccc(C(CN2CCC(N3CCCCC3)CC2)N2CCN(C3CCCC3)CC2)cc1 (configuration not stated) | > 100 | 
COCCN1CCN(C(CN2CCC(N3CCCCC3)CC2)c2ccc(C#N)cc2)CC1 (configuration not stated) | < 50 | 
CCOc1ccc(C(CN2CCC(N3CCCCC3)CC2)N2CCN(CCOC)CC2)cc1 (configuration not stated) | > 100 | 
COCCN1CCN(C(CN2CCC(C3CCCCC3)CC2)c2ccccc2)CC1 (configuration not stated) | > 100 | 
COCCN1CCN(C(CN2CCN(c3ccccc3)CC2)c2ccccc2)CC1 (configuration not stated) | > 100 | 
COCCN1CCN(C(CN2CCC(NC(=O)C(C)C)CC2)c2ccccc2)CC1 (configuration not stated) | < 100 | 

SMILES | IC50 (Ferroportin) [µM] | inhibition (Hepcidin (Homo sapiens)) [%]
c1ccc(C(CN2CCC(N3CCCCC3)CC2)N2CCN(CC3CCCO3)CC2)cc1 (configuration not stated) | < 50 | 
CC(C)N1CCN(C(CN2CCC(N3CCCCC3)CC2)c2ccccc2)CC1 (configuration not stated) | > 100 | 
COCCN1CCN(C(CN2CCC(N3CCCCC3)CC2)c2ccccc2Cl)CC1 (configuration not stated) | > 100 | 
CCOCCN1CCN(C(CN2CCC(N3CCCCC3)CC2)c2ccccc2)CC1 (configuration not stated) | < 50 | 
COCCN1CCCN(C(CN2CCC(N3CCCCC3)CC2)c2ccccc2)CC1 (configuration not stated) | < 50 | 
COCCN1CCN(C(CN2CCC(N3CCCCC3)CC2)c2ccc(C(F)(F)F)cc2)CC1 (configuration not stated) | < 50 | 
COCCN1CCN(C(CN2CCC(N3CCC(C)CC3)CC2)c2ccccc2)CC1 (configuration not stated) | < 100 | 
COCCN1CCN(C(CN2CCC(NC(=O)C3CCCCC3)CC2)c2ccccc2)CC1 (configuration not stated) | < 50 | 
COCCN1CCN(C(CN2CCC(N3CCN(C)CC3)CC2)c2ccccc2)CC1 (configuration not stated) | > 100 | 
COCCN1CCN(C(CN2CCC(N3CCCCC3)CC2)c2ccccc2)CC1 (configuration not stated) | < 50 | > 50
COCCN1CCN(C(CN2CCC(N3CCOCC3)CC2)c2ccccc2)CC1 (configuration not stated) | < 50 | 
COCCN1CCN(C(CN2CCC(N3CCCCC3)CC2)c2cccc(Cl)c2)CC1 (configuration not stated) | > 100 | 
COCCN1CCN(C(CN2CCC(N3CCCCC3)CC2)c2ccc(Cl)cc2)CC1 (configuration not stated) | > 100 | 
COCCN1CCN(C(CN2CCC(N3CCCCC3)CC2)c2ccc(C)cc2)CC1 (configuration not stated) | < 50 | 
COCCN1CCN(C(CN2CCOCC2)c2ccccc2)CC1 (configuration not stated) | > 100 | 

Further lines, results first:

IC50 (Ferroportin) [µM] | inhibition (Hepcidin (Homo sapiens)) [%] | SMILES
< 100 | < 50 | c1ccc(C(CN2CCC(N3CCCCC3)CC2)NCCN2CCOCC2)cc1 (configuration not stated)
< 100 | < 50 | COc1ccc(CNC(CN2CCC(N3CCCCC3)CC2)c2ccccc2)cc1 (configuration not stated)
< 50 |  | CCN(CC)C1CCN(CC(c2ccccc2)N2CCN(CCOC)CC2)CC1 (configuration not stated)
> 100 |  | COCCN1CCN(C(CN2CCC(C(=O)NC3CCCCC3)CC2)c2ccccc2)CC1 (configuration not stated)
> 100 |  | O=C(C1CCCO1)N1CCN(CC(NCc2ccccc2)c2ccccc2)CC1 (configuration not stated)
 | < 50 | O=C(C1CCCO1)N1CCN(CC(NCc2ccccn2)c2ccc(F)cc2)CC1 (configuration not stated)
< 50 |  | COCCN1CCN(C(CN2CCC(N3CCCCC3)CC2)c2ccc(F)cc2)CC1 (configuration not stated)
< 50 |  | COc1ccccc1C(=O)N1CCN(CC(NCc2ccccn2)c2ccc(F)cc2)CC1 (configuration not stated)
< 50 |  | COCCN1CCN(C(CN2CCC(N3CCCC3)CC2)c2ccccc2)CC1 (configuration not stated)
> 100 |  | NC(CN1CCN(c2cnccn2)CC1)c1ccc(F)cc1 (configuration not stated)
> 100 |  | Fc1ccc(C(CN2CCN(c3ccccn3)CC2)NCc2ccccn2)cc1 (configuration not stated)
> 100 |  | c1ccc(C(CN2CCC(N3CCCCC3)CC2)N2CCN(CCn3ccnc3)CC2)cc1 (configuration not stated)
> 100 |  | c1ccc(C(CN2CCC(N3CCCCC3)CC2)N2CCN(c3ccccn3)CC2)cc1 (configuration not stated)
> 100 |  | NC(CN1CCN(C(=O)C2CCCO2)CC1)c1ccc(F)cc1 (configuration not stated)
> 100 |  | CC(=O)N1CCN(CC(NCc2ccccn2)c2ccc(F)cc2)CC1 (configuration not stated)
> 100 |  | Fc1ccc(C(CN2CCN(c3ccccc3)CC2)NCc2ccccn2)cc1 (configuration not stated)
< 100 |  | COCCN1CCN(C(CN2CCC(NC(C)=O)CC2)c2ccccc2)CC1 (configuration not stated)
> 100 |  | c1ccc(C(CN2CCN(c3cnccn3)CC2)NCc2ccccn2)cc1 (configuration not stated)
< 100 |  | c1ccc(C(CN2CCCCC2)NCCN2CCOCC2)cc1 (configuration not stated)
> 100 |  | c1ccc(CNC(CN2CCN(c3cnccn3)CC2)c2ccncc2)nc1 (configuration not stated)
> 100 |  | COCCN1CCN(C(CN2CCC(NC(=O)c3ccccc3)CC2)c2ccccc2)CC1 (configuration not stated)

IC50 (Ferroportin) [µM] | inhibition (Hepcidin (Homo sapiens)) [%] | SMILES
> 100 |  | COCCNC(CN1CCN(C(=O)C2CCCO2)CC1)c1ccc(F)cc1 (configuration not stated)
> 100 |  | CCOC(=O)C1CCN(CC(c2ccccc2)N2CCN(CCOC)CC2)CC1 (configuration not stated)
> 50 |  | Fc1ccc(C(CN2CCN(c3cnccn3)CC2)NCc2ccccc2)cc1 (configuration not stated)
< 100 |  | CNC(=O)C1CCN(CC(c2ccccc2)N2CCN(CCOC)CC2)CC1 (configuration not stated)
 | < 50 | O=C(C1CCCO1)N1CCN(CC(NCc2ccccn2)c2ccccc2)CC1 (configuration not stated)
> 50 |  | Fc1ccc(C(CN2CCN(c3cnccn3)CC2)NCc2cccs2)cc1 (configuration not stated)
> 100 |  | COc1ccc(CNC(CN2CCCCC2)c2ccccc2)cc1 (configuration not stated)
> 100 |  | O=C(C1CCCO1)N1CCN(CC(NCc2ccccc2)c2ccc(F)cc2)CC1 (configuration not stated)
> 100 |  | O=S(=O)(c1ccccc1)N1CCN(CC(NCc2ccccn2)c2ccc(F)cc2)CC1 (configuration not stated)
> 100 |  | c1ccc(C(CN2CCC(N3CCCCC3)CC2)N2CCN(c3cnccn3)CC2)cc1 (configuration not stated)
< 50 |  | CN(CCN(C)c1cnccn1)CC(NCc1ccccn1)c1ccc(F)cc1 (configuration not stated)
> 100 |  | O=C(C1CCCO1)N1CCN(CC(NCc2cccs2)c2ccc(F)cc2)CC1 (configuration not stated)
> 100 |  | Fc1cccc(C(CN2CCN(c3cnccn3)CC2)NCc2ccccn2)c1 (configuration not stated)
> 100 |  | Fc1ccccc1C(CN1CCN(c2cnccn2)CC1)NCc1ccccn1 (configuration not stated)
> 100 |  | Clc1ccc(C(CN2CCN(c3cnccn3)CC2)NCc2ccccn2)cc1 (configuration not stated)
< 50 |  | COCCN1CCN(C(CN2CCC(N(C)C)CC2)c2ccccc2)CC1 (configuration not stated)
> 100 |  | O=C(c1ccccn1)N1CCN(CC(NCc2ccccn2)c2ccc(F)cc2)CC1 (configuration not stated)
< 100 |  | COCCN1CCN(C(CN2CCC(C(=O)Nc3ccccc3)CC2)c2ccccc2)CC1 (configuration not stated)
< 50 |  | COCCN1CCN(C(CN2CCC(NC3CCCC3)CC2)c2ccccc2)CC1 (configuration not stated)
> 100 |  | COCCNC(CN1CCN(c2cnccn2)CC1)c1ccc(F)cc1 (configuration not stated)
< 50 | > 50 | Fc1ccc(C(CN2CCN(c3cnccn3)CC2)NCc2ccccn2)cc1 (configuration not stated)
